Results on one compound are retold here after patent US12600729B2, “New-type benzazepine fused ring derivative” (SHANGHAI JEYOU PHARMACEUTICAL CO., LTD., priority 2021, dated 2026).

Where two headings read alike, the source gives them in different places. Bounds are passed on as bounds.

Assay [1] deals with T1, human V1aR (Homo sapiens, UniProt P37288).
T1 construct: expressed in transfected cells; membranes prepared in house
The experiment in a line: Competitive isotope ligand binding, V1a receptor. As to the method:
(§1) The cells with high expression of human V1a receptor were amplified, collected, washed twice with PBS, resuspended with PBS containing a protease inhibitor, homogenized with a homogenizer at 15000 r/min to break the cells, and centrifuged at 4° C. and 3000 r/min for 15 minutes. The supernatant was collected, centrifuged at 20,000 r/min at 4° C. for 45 minutes. Then the supernatant was discarded to obtain a cell membrane precipitation. Buffer was added to resuspend to measure the protein concentration, aliquoted, and stored at −80° C. The cell membranes of highly expressed human V1b and V2 receptors were purchased from Perkinelmer, USA.
(§2) The stock solution of the test compound and that of the positive control were diluted to 1 mM (10-fold dilution) and 0.1 mM (100-fold dilution) with DMSO, respectively, and then sequentially subjected to a four-fold dilution with DMSO to the tenth point.
(§3) Cell membranes overexpressing human receptors were prepared with assay buffer to 5 mg/mL.
(§4) • 1. 1 μL of the compound was aspirated from the dilution plate into each well of the 96-well assay plate (the concentration of the test compound in the reaction would be diluted 100-fold). To the control well was added 1 μL of DMSO. • 2. 10 mL of membrane solution containing 5 μg/μL was prepared. • 3. To the compound assay plate was added the membrane solution from step 2 with a pipette, and each well was added with 89 μL of the membrane solution. • 4. […] The configured test plate was placed at 30° C. and incubated for 60 minutes. • 6. The membrane complexes were collected into 0.5% PEI pre-coated GF/B plate with Cell Harvester, washed 3 times with 2 mL of pre-cooled elution buffer at 4° C., and dried at 37° C. for 2 hours. • 7.
(§5) Y=Bottom+(Top−Bottom)/(1+10^((X−Log IC50))), wherein: Y is the reading value of the liquid scintillation counter, and X is the logarithmic value of the compound concentration.

The target of assay [2] is T2, human V1bR (Homo sapiens, UniProt P47901).
T2 construct: purchased Perkinelmer, USA
T2 sequence (P47901 1-424): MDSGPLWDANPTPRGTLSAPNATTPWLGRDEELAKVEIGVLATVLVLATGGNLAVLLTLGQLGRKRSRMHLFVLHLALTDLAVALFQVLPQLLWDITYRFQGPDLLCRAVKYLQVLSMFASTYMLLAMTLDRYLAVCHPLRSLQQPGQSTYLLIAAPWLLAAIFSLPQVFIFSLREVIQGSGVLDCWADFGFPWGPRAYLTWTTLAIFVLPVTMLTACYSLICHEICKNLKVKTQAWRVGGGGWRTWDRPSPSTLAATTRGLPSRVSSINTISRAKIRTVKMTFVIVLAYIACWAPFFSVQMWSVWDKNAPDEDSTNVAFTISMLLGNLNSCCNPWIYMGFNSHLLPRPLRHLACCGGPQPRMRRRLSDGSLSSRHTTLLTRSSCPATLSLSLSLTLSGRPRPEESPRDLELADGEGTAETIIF
The experiment in a line: Competitive isotope ligand binding, V1b receptor. As to the method:
as §1, §2, §3, §4, §5

Assay [3] has as its system LLC-PK1 cells. The experiment in a line: AVP-induced LLC-PK1 cell proliferation assay. It counts as cell-based, Porcine. Further details: Proliferation inhibition grading, Repeated experiment I / Proliferation inhibition grading, Repeated experiment II: key to the marks not given beside the values. Conditions: LLC-PK1, AVP 10 nM, verapamil 5 μM, graded against Tolvaptan. As to the method: Porcine renal epithelial cell LLC-PK1: purchased from ATCC, Cat #CL-101 The pathogenesis of polycystic kidney disease is related to the low intracellular calcium ion concentration of renal collecting duct epithelial cells and the cAMP-dependent excessive proliferation of cells. […] LLC-PK1 cells were incubated with M199 medium supplemented with 10% fetal bovine serum under the condition of 37° C. and 5% CO2. On the first day of the experiment, a 96-well plate was coated with 0.01% Poly-D-lysine, then each well of the plate was added with 100 μL of the above mixture. After standing at room temperature for 10 minutes, the mixture in each well was aspirated and air-dried at room temperature for 1 hour, and washed once with 200 μL 1×PBS for further use. LLC-PK1 cells were digested with trypsin, resuspended with serum-free M199 after centrifugation, counted, diluted into 1×10^5/mL cell suspension with serum-free M199 medium, and added with FBS until 1% final concentration. To a 96-well plate was transfered 200 μL of cell suspension/well. After the cells were incubated for 24 hours, the supernatant of the formulated solution was aspirated, and the cells were washed once with 200 μL of PBS. Then 160 μL of M199 medium containing 0.05% FBS and 20 μL of 10×Verapamil (final concentration of 5 μM) were sequentially added thereto, and the culture was continued for 24 hours. To the corresponding wells was respectively added 10 μL of various concentrations of the test compound (final concentration starting from 3 μM, 3-fold dilution, 8 concentration gradients) or DMSO (Min, and Max as a control) on the third day. […] On the fifth day, the culture medium was carefully aspirated. The cells were washed once with 200 μL of PBS. 90 μL of M199 serum-free medium was carefully added thereto, and then 10 μL of Alamarblue reagent was added thereto. The mixture was centrifuged at 300 rpm for 1 minute, incubated at 37° C. for 2 hours, and then tested. SpectraMax instrument was used for the sample test. The excitation light was 560 nm, and the emission light was 595 nm. Each test sample was tested in triplicate, with 6 replicates for both Min and Max, respectively. The concentration of the compound was taken as the X value, and the average value of the fluorescence intensity of each experimental well sample minus the fluorescence intensity of the background well was taken as the Y value, which represented the number of living cells in the well at the time of testing. The Grouped-Summary data-Separated bar graph in GraphPad Prism 8.0 software was used to make a bar chart for reflecting the dose-effect relationship of different compounds on AVP-induced cell proliferation. […] Data quality control: […]

T1 sequence (P37288 whole entry): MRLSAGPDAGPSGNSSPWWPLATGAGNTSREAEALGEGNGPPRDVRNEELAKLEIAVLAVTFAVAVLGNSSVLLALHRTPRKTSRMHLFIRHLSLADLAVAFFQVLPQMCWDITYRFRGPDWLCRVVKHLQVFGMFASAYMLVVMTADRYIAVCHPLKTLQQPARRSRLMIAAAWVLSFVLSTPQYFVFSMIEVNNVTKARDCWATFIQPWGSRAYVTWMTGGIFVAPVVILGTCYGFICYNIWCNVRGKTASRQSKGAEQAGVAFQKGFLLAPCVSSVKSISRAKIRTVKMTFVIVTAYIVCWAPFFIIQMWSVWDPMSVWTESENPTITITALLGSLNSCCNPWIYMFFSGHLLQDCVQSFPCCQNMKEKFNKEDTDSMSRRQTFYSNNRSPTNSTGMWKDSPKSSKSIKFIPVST

For `O=C(Nc1ccc(C(=O)N2CC[C@@H]3CCN[C@H]3c3cc(Cl)ccc32)cn1)c1ccccc1C(F)(F)F` (single isomer, unassigned) [Compound 10A], the Ki in assay [1] (Binding affinity V1aR, N = 1, isotope-labeled vasopressin […], experiment 1) was 0.0197 µM; in assay [1] (Binding affinity V1aR, N = 2, isotope-labeled vasopressin […], experiment 2) it was 0.0111 µM; in assay [1] (isotope-labeled vasopressin […], mean ± spread, read-out: Binding affinity V1aR, mean of the two experiments) it was 0.0154 ± 0.0043 µM; in assay [2] it was more than 10 µM; in assay [2] (isotope-labeled vasopressin […], bound given in μM, read-out: Binding affinity V1bR, summary of the two experiments), more than 10 µM; in assay [2] (read-out: Binding affinity V1bR, N = 2, isotope-labeled vasopressin […], experiment 2, bound printed in μM), more than 10 µM. Also, the IC50 in assay [2] is more than 10 µM. The “Proliferation inhibition grading, Repeated experiment I” value in assay [3] is recorded as “+++”. In addition, the “Proliferation inhibition grading, Repeated experiment II” value in assay [3] is on record as “+++”.

In general, IC50 refers to the midpoint of a concentration-inhibition curve.
